# Patent EP2796135A1, “Use of trifluoroacetic acid and salts thereof to treat hypercholesterolemia” (POLICHEM S.A., priority 2013, dated 2014)
# Where a name gives a salt, the structure may show the parent alone.
# Columns and labels:
# [1] = preliminary oral study with ascending dose levels in minipigs (Example 13); assay type: in vivo, Göttingen minipig; settings: in vivo, minipig, read-out: maximum tolerated dose
# Protocol: (§1) A preliminary oral study of the Calcium salt of trifluoroacetic acid was performed in minipigs. One male and one female Göttingen minipig were daily treated by oral route with ascending dose levels of Calcium salt of trifluoroacetic acid, as indicated below.
# (§2) The oral solutions were prepared as for Example 1.
# total cholesterol [2] = test: as above; assay type: in vivo, Göttingen minipig; settings: for decrease of total cholesterol: male
# Protocol: as §1, §2
# total cholesterol [3] = test: preliminary intravenous study in dogs, daily administration for 14 days (Example 14); assay type: in vivo, Beagle dogs; settings: for reduction in total cholesterol: end of the 14 days of treatment
# Protocol: A preliminary intravenous study of the Calcium salt of trifluoroacetic acid was performed in Beagle dogs after daily administration.
# Dogs (2 animals/sex/group) were treated by intravenous slow injection (2.5 mL/min) with 100 and 200 mg/kg for 14 consecutive days.
# (§3) The intravenous solutions were prepared as for Example 9.
# total cholesterol [4] = test: intravenous study in dogs, daily administration for 4 weeks (Example 15); assay type: in vivo, Beagle dogs; settings: for reduction in total cholesterol: intravenous, end of the 4 weeks of treatment
# Protocol: An intravenous study of the Calcium salt of trifluoroacetic acid was performed in Beagle dogs after daily administration for 4 weeks.
# Dogs (4 animals/sex/group) were treated by intravenous slow injection (2.5 mL/min) with 50, 100 and 200 mg/kg for 4 consecutive weeks.
# as §3
# [5] = ascending doses 50-1000 mg/kg/day
# [6] = intravenous, 100 and 200 mg/kg, 14 consecutive days
smiles,measurement,setting,value
"O=C(O)C(F)(F)F [Calcium salt of trifluoroacetic acid, Calcium trifluoroacetate]",MTD,[1],≥ 1000 mg/kg
same,"changes in body weight, food consumption and water consumption",total cholesterol [2]; [5],No changes of toxicological relevance
same,changes in hematology,total cholesterol [2]; [5],No changes of note
same,mortality,"total cholesterol [2]; ascending doses 50-1000 mg/kg/day, one male and one female minipig",No mortality occurred
same,decrease of total cholesterol,total cholesterol [2]; 150 mg/kg/day,18%
same,decrease of total cholesterol,total cholesterol [2]; 200 mg/kg/day,33%
same,decrease of total cholesterol,total cholesterol [2]; 300 mg/kg/day,44%
same,decrease of total cholesterol,total cholesterol [2]; 600 mg/kg/day,49%
same,decrease of total cholesterol,total cholesterol [2]; 1000 mg/kg/day,56%
same,reduction in total cholesterol,"total cholesterol [3]; females, intravenous, 100 mg/kg/day",29%
same,reduction in total cholesterol,"total cholesterol [3]; females, intravenous, 200 mg/kg/day",16%
same,deaths,"total cholesterol [3]; intravenous slow injection, 100 and 200 mg/kg, 14 consecutive days",No deaths occurred
same,"differences in body weight, food consumption, physical examination and chemical chemistry, coagulation, organ weight",total cholesterol [3]; [6],No significant differences
same,findings recorded in the study,total cholesterol [3]; [6],limited to the site of injection
same,reduction in total cholesterol,"total cholesterol [3]; males, intravenous, 100 mg/kg/day",18%
same,reduction in total cholesterol,"total cholesterol [3]; males, intravenous, 200 mg/kg/day",21%
same,"changes in body weight, food consumption and water consumption, hematological, chemical chemistry, fecal and urinalysis parameters","total cholesterol [4]; both sexes, intravenous, 50, 100 and 200 mg/kg, 4 weeks",No changes of toxicological relevance
same,reduction in total cholesterol,"total cholesterol [4]; females, 50 mg/kg/day",20%
same,reduction in total cholesterol,"total cholesterol [4]; females, 100 mg/kg/day",29%
same,reduction in total cholesterol,"total cholesterol [4]; females, 200 mg/kg/day",24%
same,deaths,"total cholesterol [4]; intravenous slow injection, 50, 100 and 200 mg/kg, 4 consecutive weeks",No deaths occurred
same,organ weights,"total cholesterol [4]; intravenous, 50, 100 and 200 mg/kg, 4 weeks",unaffected
same,findings at the site of injection and electrographic alterations,"total cholesterol [4]; intravenous, 50, 100 and 200 mg/kg, 4 weeks, findings at the site of injection minimal to moderate",dose dependent and reversible
same,reduction in total cholesterol,"total cholesterol [4]; males, 50 mg/kg/day",9%
same,reduction in total cholesterol,"total cholesterol [4]; males, 100 mg/kg/day",21%
same,reduction in total cholesterol,"total cholesterol [4]; males, 200 mg/kg/day",15%
